pIC50: −log10 of the molar value.
Experiments:
3CL^pro mutant F140A = format: biochemical, SARS-CoV-2
[1] = system: SARS-CoV-2 Omicron variant B.1.1.529; details: cited from earlier work

## simnotrelvir
3CL^pro mutant F140A
  IC50 fold change to WT: 21.9 fold
[1]
  pIC50: 7.37

— PMC11963564 (Antimicrobial Agents and Chemotherapy, 2025)
